Patent US8802597B2, “Herbicidal pyrimidines” (E I du Pont de Nemours and Company, priority 2003, dated 2014)

Tests used:
Test in all cases: Test C pre/postemergence
Format in all cases: in vivo
[1] = test system: crabgrass (Digitaria sanguinalis); details: for Crabgrass plant response rating: scale 0 to 100 (0 no effect, 100 complete control)
Summary of the method: (§1)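 Test compounds, formulated in a non-phytotoxic solvent mix with surfactant, were applied to freshly planted seeds and, at the same time, to emerged plants at 1- to 4-leaf stage (2 to 18 cm). After 12 to 14 days in the greenhouse, response was scored visually versus controls, 0 = no effect, 100 = complete control.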

[2] = test system: johnsongrass (Sorghum halepense); details: for Johnsongrass plant response rating: scale 0 to 100 (0 no effect, 100 complete control)
Summary of the method: as §1

[3] = test system: velvetleaf (Abutilon theophrasti); details: for Velvetleaf plant response rating: scale 0 to 100 (0 no effect, 100 complete control)
Summary of the method: as §1

[4] = test system: woolly cupgrass (Eriochloa villosa); details: for Cupgrass, Woolly plant response rating: scale 0 to 100 (0 no effect, 100 complete control)
Summary of the method: as §1

[5] = test system: cocklebur (Xanthium strumarium); details: for Cocklebur plant response rating: scale 0 to 100 (0 no effect, 100 complete control)
Summary of the method: as §1

[6] = test system: morningglory (Ipomoea coccinea); details: for Morningglory plant response rating: scale 0 to 100 (0 no effect, 100 complete control)
Summary of the method: as §1

[7] = test system: giant foxtail (Setaria faberii); details: for Foxtail, Giant plant response rating: scale 0 to 100 (0 no effect, 100 complete control)
Summary of the method: as §1

[8] = test system: yellow nutsedge (Cyperus esculentus); details: for Nutsedge, Yellow plant response rating: scale 0 to 100 (0 no effect, 100 complete control)
Summary of the method: as §1

[9] = test system: kochia (Kochia scoparia); details: for Kochia plant response rating: scale 0 to 100 (0 no effect, 100 complete control)
Summary of the method: as §1

[10] = test system: common (oilseed) sunflower (Helianthus annuus); details: Preemergence
Summary of the method: as §1

[11] = test system: pigweed (Amaranthus retroflexus); details: for Pigweed plant response rating: scale 0 to 100 (0 no effect, 100 complete control)
Summary of the method: as §1

[12] = test system: Surinam grass (Brachiaria decumbens); details: for Surinam Grass plant response rating: scale 0 to 100 (0 no effect, 100 complete control)
Summary of the method: as §1

[13] = Postemergence, 250 g ai/ha, scale 0 to 100
[14] = Postemergence, 500 g ai/ha, scale 0 to 100
[15] = Preemergence, 62 g ai/ha, scale 0 to 100, 0 no effect, 100 complete control
[16] = Preemergence, 125 g ai/ha, scale 0 to 100
[17] = Preemergence, 250 g ai/ha, scale 0 to 100
[18] = Preemergence, 500 g ai/ha, scale 0 to 100
[19] = 62 g ai/ha, scale 0 to 100, 0 no effect, 100 complete control
[20] = Preemergence, 31 g ai/ha, scale 0 to 100, 0 no effect, 100 complete control

## Nc1nc(C2CC2)nc(C=NO)c1Br [Compound 27]
[1]; Postemergence, 62 g ai/ha
  Crabgrass plant response rating: 0
[1]; Postemergence, 125 g ai/ha
  Crabgrass plant response rating: 0
[1]; [13]
  Plant response rating, Crabgrass: 5
[1]; [14]
  Plant response rating, Crabgrass: 30
[1]; [15]
  Plant response rating, Crabgrass: 0
[1]; [16]
  Plant response rating, Crabgrass: 0
[1]; [17]
  Plant response rating, Crabgrass: 0
[1]; [18]
  Plant response rating, Crabgrass: 85
[2]; Postemergence, 62 g ai/ha
  Johnsongrass plant response rating: 0
[2]; Postemergence, 125 g ai/ha
  Johnsongrass plant response rating: 0
[2]; [13]
  Plant response rating, Johnsongrass: 0
[2]; [14]
  Plant response rating, Johnsongrass: 0
[2]; [15]
  Plant response rating, Johnsongrass: 0
[2]; [16]
  Plant response rating, Johnsongrass: 20
[2]; [17]
  Plant response rating, Johnsongrass: 45
[2]; [18]
  Plant response rating, Johnsongrass: 65
[3]; Postemergence, 62 g ai/ha
  Velvetleaf plant response rating: 0
[3]; Postemergence, 125 g ai/ha
  Velvetleaf plant response rating: 0
[3]; [13]
  Plant response rating, Velvetleaf: 0
[3]; [14]
  Plant response rating, Velvetleaf: 30
[3]; [15]
  Plant response rating, Velvetleaf: 0
[3]; [16]
  Plant response rating, Velvetleaf: 0
[3]; [17]
  Plant response rating, Velvetleaf: 50
[3]; [18]
  Plant response rating, Velvetleaf: 70
[4]; Postemergence, 62 g ai/ha
  Cupgrass, Woolly plant response rating: 0
[4]; Postemergence, 125 g ai/ha
  Cupgrass, Woolly plant response rating: 0
[4]; [13]
  Plant response rating, Cupgrass, Woolly: 0
[4]; [14]
  Plant response rating, Cupgrass, Woolly: 0
[4]; [15]
  Plant response rating, Cupgrass, Woolly: 0
[4]; [16]
  Plant response rating, Cupgrass, Woolly: 0
[4]; [17]
  Plant response rating, Cupgrass, Woolly: 10
[4]; [18]
  Plant response rating, Cupgrass, Woolly: 15
[5]; Postemergence, 62 g ai/ha
  Cocklebur plant response rating: 20
[5]; Postemergence, 125 g ai/ha
  Cocklebur plant response rating: 25
[5]; [13]
  Plant response rating, Cocklebur: 25
[5]; [14]
  Plant response rating, Cocklebur: 25
[5]; [15]
  Plant response rating, Cocklebur: 0
[5]; [16]
  Plant response rating, Cocklebur: 50
[5]; [17]
  Plant response rating, Cocklebur: 70
[5]; [18]
  Plant response rating, Cocklebur: 95
[6]; Postemergence, 62 g ai/ha
  Morningglory plant response rating: 20
[6]; Postemergence, 125 g ai/ha
  Morningglory plant response rating: 85
[6]; [13]
  Plant response rating, Morningglory: 85
[6]; [14]
  Plant response rating, Morningglory: 85
[6]; [15]
  Plant response rating, Morningglory: 0
[6]; [16]
  Plant response rating, Morningglory: 70
[6]; [17]
  Plant response rating, Morningglory: 95
[6]; [18]
  Plant response rating, Morningglory: 100
[7]; Postemergence, 62 g ai/ha
  Foxtail, Giant plant response rating: 0
[7]; Postemergence, 125 g ai/ha
  Foxtail, Giant plant response rating: 0
[7]; [13]
  Plant response rating, Foxtail, Giant: 0
[7]; [14]
  Plant response rating, Foxtail, Giant: 0
[7]; [15]
  Plant response rating, Foxtail, Giant: 0
[7]; [16]
  Plant response rating, Foxtail, Giant: 0
[7]; [17]
  Plant response rating, Foxtail, Giant: 0
[7]; [18]
  Plant response rating, Foxtail, Giant: 20
[8]; Postemergence, 62 g ai/ha
  Nutsedge, Yellow plant response rating: 0
[8]; Postemergence, 125 g ai/ha
  Nutsedge, Yellow plant response rating: 0
[8]; [13]
  Plant response rating, Nutsedge, Yellow: 0
[8]; [14]
  Plant response rating, Nutsedge, Yellow: 0
[8]; [15]
  Plant response rating, Nutsedge, Yellow: 0
[8]; [16]
  Plant response rating, Nutsedge, Yellow: 0
[8]; [17]
  Plant response rating, Nutsedge, Yellow: 0
[8]; [18]
  Plant response rating, Nutsedge, Yellow: 20
[9]; Postemergence, 62 g ai/ha
  Kochia plant response rating: 0
[9]; Postemergence, 125 g ai/ha
  Kochia plant response rating: 20
[9]; [13]
  Plant response rating, Kochia: 50
[9]; [14]
  Plant response rating, Kochia: 60
[9]; [15]
  Plant response rating, Kochia: 0
[9]; [16]
  Plant response rating, Kochia: 0
[9]; [17]
  Plant response rating, Kochia: 30
[9]; [18]
  Plant response rating, Kochia: 45
[10]; [19]
  Plant response rating, Sunflower: 0
[10]; 125 g ai/ha, scale 0 to 100
  Plant response rating, Sunflower: 20
[10]; 250 g ai/ha, scale 0 to 100
  Plant response rating, Sunflower: 90
[10]; 500 g ai/ha, scale 0 to 100
  Plant response rating, Sunflower: 95
[11]; Postemergence, 62 g ai/ha
  Pigweed plant response rating: 5
[11]; Postemergence, 125 g ai/ha
  Pigweed plant response rating: 20
[11]; [13]
  Plant response rating, Pigweed: 30
[11]; [14]
  Plant response rating, Pigweed: 80
[11]; [15]
  Plant response rating, Pigweed: 20
[11]; [16]
  Plant response rating, Pigweed: 80
[11]; [17]
  Plant response rating, Pigweed: 90
[11]; [18]
  Plant response rating, Pigweed: 100
[12]; Postemergence, 62 g ai/ha
  Surinam Grass plant response rating: 0
[12]; Postemergence, 125 g ai/ha
  Surinam Grass plant response rating: 0
[12]; [13]
  Plant response rating, Surinam Grass: 0
[12]; [14]
  Plant response rating, Surinam Grass: 0
[12]; [15]
  Plant response rating, Surinam Grass: 0
[12]; [16]
  Plant response rating, Surinam Grass: 0
[12]; [17]
  Plant response rating, Surinam Grass: 20
[12]; [18]
  Plant response rating, Surinam Grass: 30

## COC(=O)Cc1nc(C2CC2)nc(N)c1Br [Compound 13]
[1]; [20]
  Plant response rating, Crabgrass: 0
[1]; [15]
  Plant response rating, Crabgrass: 0
[1]; [16]
  Plant response rating, Crabgrass: 0
[1]; [17]
  Plant response rating, Crabgrass: 0
[2]; [20]
  Plant response rating, Johnsongrass: 0
[2]; [15]
  Plant response rating, Johnsongrass: 0
[2]; [16]
  Plant response rating, Johnsongrass: 5
[2]; [17]
  Plant response rating, Johnsongrass: 45
[3]; [20]
  Plant response rating, Velvetleaf: 60
[3]; [15]
  Plant response rating, Velvetleaf: 60
[3]; [16]
  Plant response rating, Velvetleaf: 80
[3]; [17]
  Plant response rating, Velvetleaf: 90
[4]; [20]
  Plant response rating, Cupgrass, Woolly: 0
[4]; [15]
  Plant response rating, Cupgrass, Woolly: 0
[4]; [16]
  Plant response rating, Cupgrass, Woolly: 0
[4]; [17]
  Plant response rating, Cupgrass, Woolly: 0
[5]; [20]
  Plant response rating, Cocklebur: 40
[5]; [15]
  Plant response rating, Cocklebur: 60
[5]; [16]
  Plant response rating, Cocklebur: 90
[5]; [17]
  Plant response rating, Cocklebur: 95
[6]; [20]
  Plant response rating, Morningglory: 60
[6]; [15]
  Plant response rating, Morningglory: 65
[6]; [16]
  Plant response rating, Morningglory: 85
[6]; [17]
  Plant response rating, Morningglory: 90
[7]; [20]
  Plant response rating, Foxtail, Giant: 0
[7]; [15]
  Plant response rating, Foxtail, Giant: 0
[7]; [16]
  Plant response rating, Foxtail, Giant: 0
[7]; [17]
  Plant response rating, Foxtail, Giant: 5
[8]; [20]
  Plant response rating, Nutsedge, Yellow: 0
[8]; [15]
  Plant response rating, Nutsedge, Yellow: 0
[8]; [16]
  Plant response rating, Nutsedge, Yellow: 0
[8]; [17]
  Plant response rating, Nutsedge, Yellow: 0
[9]; [20]
  Plant response rating, Kochia: 45
[9]; [15]
  Plant response rating, Kochia: 60
[9]; [16]
  Plant response rating, Kochia: 80
[9]; [17]
  Plant response rating, Kochia: 85
[10]; 31 g ai/ha, scale 0 to 100, 0 no effect, 100 complete control
  Plant response rating, Sunflower: 5
[10]; [19]
  Plant response rating, Sunflower: 50
[10]; 125 g ai/ha, scale 0 to 100
  Plant response rating, Sunflower: 60
[10]; 250 g ai/ha, scale 0 to 100
  Plant response rating, Sunflower: 90
[11]; [20]
  Plant response rating, Pigweed: 50
[11]; [15]
  Plant response rating, Pigweed: 60
[11]; [16]
  Plant response rating, Pigweed: 85
[11]; [17]
  Plant response rating, Pigweed: 90
[12]; [20]
  Plant response rating, Surinam Grass: 0
[12]; [15]
  Plant response rating, Surinam Grass: 0
[12]; [16]
  Plant response rating, Surinam Grass: 0
[12]; [17]
  Plant response rating, Surinam Grass: 10
